Like-named read-outs stand apart in the source and are kept apart here.
Tests used:
BRS3 = BRS3 (Homo sapiens, UniProt P32247); assay: cell-based
From the text: Formation of the arrestin-receptor complex occurred as the agonist bind to the receptor and it is able to trace the translocation of this complex from plasma membrane to cytoplasm in a form of endocytoplamic vesicles. Monitoring the distribution and translocation of GFP-labeled arrestin in cell expressing BRS3, we are able to measure the ability of the crude extracts to activate BRS3.

human BRS3 = biological target: T1, human BRS3 (Homo sapiens, UniProt P32247); assay: Cytosolic Ca++ mobilization assay in U2OS cells expressing BRS3; assay type: cell-based; details: for magnitude of released calcium and time to reach the peak of the transient: dose response
T1 construct: expressed in transfected cells; host or cells: U2OS
T1 sequence (P32247 1-399): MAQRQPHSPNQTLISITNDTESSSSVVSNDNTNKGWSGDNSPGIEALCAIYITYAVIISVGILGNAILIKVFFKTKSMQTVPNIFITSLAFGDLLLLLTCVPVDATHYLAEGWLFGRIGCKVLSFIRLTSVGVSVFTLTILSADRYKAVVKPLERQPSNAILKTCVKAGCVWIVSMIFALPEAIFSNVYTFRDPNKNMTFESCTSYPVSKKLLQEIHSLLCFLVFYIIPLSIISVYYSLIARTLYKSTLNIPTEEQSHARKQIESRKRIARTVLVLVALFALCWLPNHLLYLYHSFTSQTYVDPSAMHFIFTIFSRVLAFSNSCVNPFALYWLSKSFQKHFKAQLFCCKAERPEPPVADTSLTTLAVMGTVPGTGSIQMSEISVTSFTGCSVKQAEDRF
Procedure: Fluorescence was measured at dual excitation wavelengths of 340 nm and 380 nm, using an emission wavelength of 510 nm. Autofluorescence was corrected for by running a sample of unlabeled cells in identical experimental conditions.

[1] = test system: U2OS cells that does not express BRS3
Procedure: After two washes with assay buffer, 2 ml of cell suspension were placed in a Delta PTI Scan 1 spectrofluorimeter (Photon Technology International, South Brunswick, N.J.) equipped with a stir bar and water bath (37° C.). Fluorescence was measured at dual excitation wavelengths of 340 nm and 380 nm, using an emission wavelength of 510 nm. Autofluorescence was corrected for by running a sample of unlabeled cells in identical experimental conditions.

GRPR = GRPR (Homo sapiens, UniProt P30550); assay: cell-based; details: Table 6
Sequence of GRPR (P30550 whole entry, species assumed): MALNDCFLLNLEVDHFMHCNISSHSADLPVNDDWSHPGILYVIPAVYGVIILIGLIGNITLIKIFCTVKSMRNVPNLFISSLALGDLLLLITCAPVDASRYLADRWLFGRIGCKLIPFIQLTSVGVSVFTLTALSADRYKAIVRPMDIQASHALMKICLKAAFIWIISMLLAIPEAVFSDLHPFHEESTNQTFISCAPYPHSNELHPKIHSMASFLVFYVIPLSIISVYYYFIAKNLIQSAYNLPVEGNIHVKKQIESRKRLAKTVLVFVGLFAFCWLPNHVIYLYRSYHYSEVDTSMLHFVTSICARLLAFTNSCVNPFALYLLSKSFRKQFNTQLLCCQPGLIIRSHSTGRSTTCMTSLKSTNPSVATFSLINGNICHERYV

NMBR = NMBR (Homo sapiens, UniProt P28336); assay: cell-based; details: Table 6
Sequence of NMBR (P28336 whole entry, species assumed): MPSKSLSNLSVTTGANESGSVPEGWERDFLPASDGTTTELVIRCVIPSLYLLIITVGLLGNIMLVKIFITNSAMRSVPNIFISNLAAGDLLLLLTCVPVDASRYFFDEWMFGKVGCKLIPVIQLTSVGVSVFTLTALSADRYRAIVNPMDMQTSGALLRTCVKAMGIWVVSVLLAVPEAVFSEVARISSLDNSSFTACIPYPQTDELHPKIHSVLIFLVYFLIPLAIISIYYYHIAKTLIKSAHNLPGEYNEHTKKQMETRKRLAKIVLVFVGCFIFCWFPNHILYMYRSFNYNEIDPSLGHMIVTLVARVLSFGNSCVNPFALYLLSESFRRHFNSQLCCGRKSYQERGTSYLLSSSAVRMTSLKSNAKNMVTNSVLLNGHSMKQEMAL

[2] = Table 5, U2OS cells expressing human BRS3, read-out: EC50 Ca++

CC=C(C)C(=O)OC1C2C(CC(C)C3C=CC(=O)C31C)OC(=O)C2C (centres unmarked) [Compound 3, Microhelenin C]
EC50 (BRS3; EC50 Arrestin, Table 5): 2 µM | EC50 (human BRS3): 11 µM

C=C(C)C(=O)O[C@H]1[C@H]2[C@@H](C[C@@H](C)[C@@H]3C=CC(=O)[C@]31C)OC(=O)[C@@H]2C [Compound 1, Arnicolide D]
EC50 (BRS3; EC50 Arrestin, Table 5): 2.8 µM | EC50 (human BRS3): 10 µM

CCC(C)C(=O)O[C@H]1[C@H]2[C@@H](C[C@@H](C)C3C=CC(=O)[C@]31C)OC(=O)[C@@H]2C (some centres unmarked) [Compound 4, Microhelenin B]
cytosolic Ca++ release in cells without BRS3 [1]: not able to stimulated cytosolic Ca^++ release | EC50 (GRPR): > 861 µM | EC50 (NMBR): > 861 µM | EC50 (BRS3; EC50 Arrestin, Table 5): 2.35 µM | EC50 (BRS3; EC50 BRS3, Table 6): 3.73 µM | EC50 (human BRS3): 4.2 µM | time of return of cytosolic calcium to basal levels (human BRS3; 6.8 μg/ml): 1 min | time to maximal level of cytosolic calcium (human BRS3; 6.8 μg/ml): 13 s | magnitude of released calcium and time to reach the peak of the transient (human BRS3): concentration-dependent and saturable

CC(C)CC(=O)O[C@H]1[C@H]2[C@@H](C[C@@H](C)[C@@H]3C=CC(=O)[C@]31C)OC(=O)[C@@H]2C [Compound 5, Arnicolide B]
EC50 (BRS3; EC50 Arrestin, Table 5): 7.5 µM | EC50 (human BRS3): 20 µM

CC(C)C(=O)O[C@H]1[C@H]2[C@@H](C[C@@H](C)[C@@H]3C=CC(=O)[C@]31C)OC(=O)[C@@H]2C [Compound 2, Arnicolide C]
EC50 (BRS3; EC50 Arrestin, Table 5): 2.8 µM | EC50 (human BRS3): 12 µM

CCC(C)C(=O)O[C@H]1[C@@H]2[C@H](C)C(=O)O[C@@H]2C[C@@H](C)C2[C@@H](C)CC(=O)[C@]21C (stereo partly drawn) [Compound B, 11α-13-dihydroarnifolin B]
cytosolic Ca++ release in cells without BRS3 [1]: not able to stimulated cytosolic Ca^++ release | EC50 (GRPR): > 686 µM | EC50 (NMBR): > 823 µM | EC50 (BRS3; EC50 Arrestin, Table 5): 14 µM | EC50 (BRS3; EC50 BRS3, Table 6): 13.7 µM | time of return of cytosolic calcium to basal levels (human BRS3; 25 μg/ml): 1 min | time to maximal level of cytosolic calcium (human BRS3; 25 μg/ml): 13 s | EC50 (human BRS3; [2]): 9.6 µM | magnitude of released calcium and time to reach the peak of the transient (human BRS3): concentration-dependent and saturable

CCC(C)C(=O)O[C@H]1[C@@H]2[C@H](C)C(=O)O[C@@H]2C[C@@H](C)C2[C@@H](O)CC(=O)[C@]21C (some centres unmarked) [Compound A, arnifoline]
EC50 (GRPR): > 1360 µM | EC50 (NMBR): > 1360 µM | EC50 (BRS3; EC50 Arrestin, Table 5): 2.7 µM | EC50 (BRS3; EC50 BRS3, Table 6): 2.73 µM | EC50 (human BRS3; [2]): 2.6 µM | magnitude of released calcium and time to reach the peak of the transient (human BRS3): concentration-dependent and saturable

— patent US20120156314A1, “11 beta, 13-DIHYDROHELENALIN DERIVATIVES AND USES THEREOF AS BOMBESIN RECEPTOR SUBTYPE 3 AGNOISTS” (VIOGENE-BIOTEK CORPORATION, priority 2010, published 2012)
